These results are taken from US20260317706A1, “COMPOSITION FOR INDUCING STEM CELLS TO DIFFERENTIATE INTO ASTROCYTES, CONTAINING CPI-455” (CHUNG ANG UNIVERSITY INDUSTRY ACADEMIC COOPERATION …, priority 2023, published 2026).

Each structure is given as a SMILES string.

What all share (type): cell-based, Sprague-Dawley rat
The subject of one data set is GFAP. Description: Western blot of TUBB3, GFAP and OLIG2 in differentiating neural stem cells. To be noted: NSCs without EGF and FGF2, 4 days, vs 0.1% DMSO, FIG. 1A. On the procedure:
(§1) Neural stem cells (NSCs) were cultured and harvested as previously reported (Faseb J 2018, 32 (2), 1108-1119). Specifically, the cells were harvested by dissecting the cerebral cortex from embryos of 14-day pregnant Sprague-Dawley rats (Orient Bio, Seongnam, South Korea). The cells were incubated for 6 days at 37° C. in 5% CO2 in Dulbecco's modified Eagle's medium (DMEM/F12) (Cat no. 12500-062, Gibco, Grand Island, NY, U.S.A.) containing Ham's nutrient mixture F-12 supplemented with 1% antibiotic-antimycotic (Cat no. 15240-062, Gibco), 2% B-27 supplement (Cat no. 17504-044, Gibco), 20 ng/ml EGF (Cat no. GF144, Chemicon, Burlington, MA, U.S.A.), and 20 ng/ml FGF2 (Cat no. GF003AF, Chemicon), so as to form neurospheres. The neurospheres were then dissociated into single cells using Accutase (Cat No. SCR005, Sigma-Aldrich, St. Louis, MO, U.S.A.). The cells were then attached to culture plates for one day in medium enriched with EGF and FGF2. […]
(§2) Chemiluminescence was detected on CP-BU new film (Agfa, Mortsel, Belgium) using western blotting luminol reagent (Cat no. sc-2048, Santa Cruz Biotechnology). Band intensity was quantified using ImageJ version 2.3.0. GAPDH (Glyceraldehyde-3-phosphate dehydrogenase) was measured as a housekeeping protein. […]

A further data set deals with lif mRNA. Description: RT-qPCR of lif mRNA in neural stem cells. To be noted: 3 days, CPI-455-induced astrocytogenesis. On the procedure:
as §1
(§3) RNA was extracted using TRIzol® reagent (Cat no. 15596018, Thermo Fisher, Waltham, MA, U.S.A.) and dissolved in diethylpyrocarbonate-treated water (Cat no. C-9030, Bioneer, Daejeon, South Korea). Complementary DNA (cDNA) was synthesized from 1 μg of RNA per sample using a QuantiTect reverse transcriptase kit (Cat no. 205311, Qiagen, Hilden, Germany). […]
(In qPCR the cycle at which signal appears reflects the starting amount.)

Another data set relates to neural stem cells (NSCs). Briefly: Immunocytochemistry (ICC) of differentiating neural stem cells. On the procedure: Neural stem cells (NSCs) were cultured and harvested as previously reported (Faseb J 2018, 32 (2), 1108-1119). Specifically, the cells were harvested by dissecting the cerebral cortex from embryos of 14-day pregnant Sprague-Dawley rats (Orient Bio, Seongnam, South Korea). The cells were incubated for 6 days at 37° C. in 5% CO2 in Dulbecco's modified Eagle's medium (DMEM/F12) (Cat no. 12500-062, Gibco, Grand Island, NY, U.S.A.) containing Ham's nutrient mixture F-12 supplemented with 1% antibiotic-antimycotic (Cat no. 15240-062, Gibco), 2% B-27 supplement (Cat no. 17504-044, Gibco), 20 ng/ml EGF (Cat no. GF144, Chemicon, Burlington, MA, U.S.A.), and 20 ng/ml FGF2 (Cat no. GF003AF, Chemicon), so as to form neurospheres. The neurospheres were then dissociated into single cells using Accutase (Cat No. SCR005, Sigma-Aldrich, St. Louis, MO, U.S.A.). The cells were then attached to culture plates for one day in medium enriched with EGF and FGF2. Next, the NSCs were treated with DMEM/F12 medium containing 1% antibiotic-antimycotic, 2% B-27 supplement, and either DMSO (Cat no. 472301, Sigma-Aldrich) or various concentrations of CPI-455 (Cat no. HY-100421, Medchemexpress, Princeton, NJ, U.S.A.) dissolved in DMSO. The medium was replaced every 2 days. Cells for western blot and immunostaining were cultured for 4 days after treatment with CPI-455. Cells for RT-qPCR and ChIP-qPCR were cultured for 3 days after treatment with CPI-455.
Immunocytochemistry was performed as previously reported (Faseb J 2018, 32 (2), 1108-1119). Specifically, the cells were fixed in 4% paraformaldehyde solution (Cat no. P231, Biosesang, Seongnam, South Korea) for 30 minutes. The cells were blocked with 5% goat serum (Cat no. S26, Millipore) diluted in 0.2% Triton X-100 (Cat no. 0694-1L, VWR International, Radnor, PA, U.S.A.).
The cells were stained for 1 hour with the following primary antibodies: TUBB3 (1:1000; Cat no. T5076, Sigma-Aldrich) and GFAP (1:500; Cat no. Z0334, Dako, Santa Clara, CA, U.S.A.). Next, the following secondary antibodies were applied for 30 minutes: Alexa488 goat anti-mouse IgG (1:1000; Cat no. A21131, Invitrogen, Waltham, MA, U.S.A.) and Cy3 goat anti-rabbit IgG (1:1000; Cat no. 111-165-144, Jackson, West Grove, PA, U.S.A.).
The nuclei were stained by treating the cells with 0.01% DAPI (4′,6-diamidino-2-phenylindole) (Cat No. D9542, Sigma-Aldrich) in PBS solution for 5 minutes. Fluorescent images were captured using a Leica DM IL inverse fluorescent microscope and LAS X software (Leica, Wetzlar, Germany).
NSCs proliferate in the presence of an epidermal growth factor (EGF) and […] growth factor-2 (FGF2), and in the absence of growth factors in a medium, NSCs differentiate into neurons and astrocytes. […]

The subject of a further data set is TUBB3. Briefly: Western blot of TUBB3 in differentiating neural stem cells. As to conditions: NSCs without EGF and FGF2, 4 days, vs 0.1% DMSO, FIG. 1A. On the procedure:
as §1, §2

The next data set deals with gfap mRNA. Description: RT-qPCR of gfap mRNA in differentiating neural stem cells. To be noted: 50 μM, 3 days without EGF and FGF2, vs 0.1% DMSO, FIG. 1B. On the procedure:
as §1, §3

In another data set the test system is bmp2 mRNA. Description: RT-qPCR of il-6, lif, cntf and bmp2 mRNA in neural stem cells. To be noted: 3 days, FIG. 3B. On the procedure:
as §1, §3

The next data set concerns STAT3. Briefly: Western blot of STAT3 expression and phosphorylation in neural stem cells. To be noted: 50 μM, 4 days, FIG. 3A. On the procedure:
as §1
Chemiluminescence was detected on CP-BU new film (Agfa, Mortsel, Belgium) using western blotting luminol reagent (Cat no. sc-2048, Santa Cruz Biotechnology). Band intensity was quantified using ImageJ version 2.3.0. GAPDH (Glyceraldehyde-3-phosphate dehydrogenase) was measured as a housekeeping protein.
A general note: Immunoblotting shows a protein as a band on a membrane.

A further data set relates to OLIG2. Description: Western blot of OLIG2 in differentiating neural stem cells. To be noted: NSCs without EGF and FGF2, 4 days, vs 0.1% DMSO, FIG. 1A. On the procedure:
as §1, §2

Where [1] appears, read: 50 μM, 4 days without EGF and FGF2, vs 0.1% DMSO, FIGS. 2A and 2B.

As to `CC(C)c1c(-c2ccccc2)[nH]c2c(C#N)cnn2c1=O` [CPI-455, 4,7-dihydro-6-(1-methylethyl)-7-oxo-5-phenyl-pyrazolo[1,5-a]pyrimidine-3-carbonitrile], the “GFAP protein expression compared to the control” value with GFAP was “significantly increased”. Further, in the data set on lif mRNA, the lif expression entry is “without an increase”. For the same compound, in the data set on neural stem cells (NSCs) (setting [1]), the “number of GFAP-positive cells” value was “significantly increased” and the “percentage of TUBB3-positive cells” value is “did not show any significant difference”. The “number of DAPI-positive cells” value with neural stem cells (NSCs) (4 days without EGF and FGF2, vs 0.1% DMSO) was “No significant difference”. Also, the “cytotoxicity during NSC differentiation” value in the data set with neural stem cells (NSCs) (4 days, inferred from DAPI-positive cell number) is given as “not inducing cytotoxicity”. For the same compound, the TUBB3 protein expression entry in the data set with TUBB3 is reported as “no significant change”. Moreover, in the data set on gfap mRNA, the “gfap mRNA expression compared to the control” value is “significantly increased”. Moreover, in the data set on bmp2 mRNA (50 μM), the “bmp2 mRNA expression” value is “significantly increased”. For the same compound, the “bmp2 mRNA among the investigated cytokines (il-6, lif, cntf, bmp2)” value in the data set with bmp2 mRNA (comparison with il-6, lif, cntf) is “only cytokine mRNA that showed a significant increase”. For the same compound, the “phosphorylated STAT3 (pSTAT3) with respect to total STAT3” value in the data set on STAT3 is “significantly increased”. In the data set on OLIG2, the OLIG2 protein expression result was “no significant change”.
